In patent publication US20100061982A1, “3-SUBSTITUTED-1H-INDOLE, 3-SUBSTITUTED-1H-PYRROLO[2,3-B]PYRIDINE AND 3-SUBSTITUTED-1H-PYRROLO[3,2-B]PYRIDINE COMPOUNDS, THEIR USE AS MTOR KINASE AND PI3 KINASE INHIBITORS, AND THEIR SYNTHESES” (priority 2008, published 2010):
pIC50: −log10 of the molar value. ≈ marks a conversion by molar mass, not a printed value. Like-named read-outs stand apart in the source and are kept apart here.

Assays:
[1] = Microsome Stability (15 min), rat; assay type: in vitro ADME; conditions: microsomes
[2] = Buffer Stability (37° C.)
[3] = Plasma Stability (37° C.), nude mouse
[4] = CACO2 permeability a-b/b-a; assay type: in vitro ADME; conditions: human, Caco-2; for Papp A→B: a − b (first value of cell), read-out: CACO2 Pe a − b; for Papp B→A: b − a (second value of cell), read-out: CACO2 Pe b − a
[5] = In vivo blood/plasma and tumor levels of prodrug and metabolites after 50 mg, kg po; conditions: 50 mg
[6] = Plasma Stability (37° C.), rat
[7] = Microsome Stability (15 min), human; assay type: in vitro ADME; conditions: microsomes
Solubility pH 7.4 = conditions: pH 7.4, aqueous buffer
[8] = PAMPA permeability pH 7.4
[9] = Microsome Stability (15 min), nude mouse; assay type: in vitro ADME; conditions: microsomes
PI3K alpha = PI3K alpha (Homo sapiens, UniProt P42336); assay: PI3K-alpha Fluorescence Polarization Assay; assay type: biochemical
PI3K alpha, sequence (P42336 whole entry, species assumed): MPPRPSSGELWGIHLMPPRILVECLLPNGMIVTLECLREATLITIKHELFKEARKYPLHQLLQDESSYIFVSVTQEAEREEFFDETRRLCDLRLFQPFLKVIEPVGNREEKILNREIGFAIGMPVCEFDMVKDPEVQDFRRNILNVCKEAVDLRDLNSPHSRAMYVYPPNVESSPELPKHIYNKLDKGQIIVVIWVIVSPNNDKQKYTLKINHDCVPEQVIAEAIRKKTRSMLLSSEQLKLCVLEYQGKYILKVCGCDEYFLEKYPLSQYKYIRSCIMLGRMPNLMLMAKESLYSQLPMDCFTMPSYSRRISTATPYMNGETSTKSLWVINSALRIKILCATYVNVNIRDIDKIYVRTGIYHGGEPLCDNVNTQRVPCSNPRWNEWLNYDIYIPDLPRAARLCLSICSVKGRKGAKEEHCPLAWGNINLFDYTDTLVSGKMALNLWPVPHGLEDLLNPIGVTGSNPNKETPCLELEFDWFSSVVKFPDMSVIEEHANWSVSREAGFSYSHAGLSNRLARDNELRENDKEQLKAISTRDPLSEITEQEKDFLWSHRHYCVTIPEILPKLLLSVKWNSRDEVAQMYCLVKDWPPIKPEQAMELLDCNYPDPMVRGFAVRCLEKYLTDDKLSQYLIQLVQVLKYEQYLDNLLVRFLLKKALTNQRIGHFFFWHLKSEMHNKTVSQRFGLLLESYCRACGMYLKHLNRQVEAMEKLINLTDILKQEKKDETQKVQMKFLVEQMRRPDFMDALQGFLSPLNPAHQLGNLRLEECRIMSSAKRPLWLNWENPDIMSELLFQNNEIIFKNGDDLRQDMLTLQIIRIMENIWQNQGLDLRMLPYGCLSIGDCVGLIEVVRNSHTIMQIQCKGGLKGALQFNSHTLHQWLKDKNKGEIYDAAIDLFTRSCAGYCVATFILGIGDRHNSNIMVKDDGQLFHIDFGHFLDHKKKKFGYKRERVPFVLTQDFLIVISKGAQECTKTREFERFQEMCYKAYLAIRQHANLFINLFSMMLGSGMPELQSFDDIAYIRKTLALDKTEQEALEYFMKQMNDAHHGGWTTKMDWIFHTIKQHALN
PI3K alpha, sequence (P27986 whole entry partner, species assumed): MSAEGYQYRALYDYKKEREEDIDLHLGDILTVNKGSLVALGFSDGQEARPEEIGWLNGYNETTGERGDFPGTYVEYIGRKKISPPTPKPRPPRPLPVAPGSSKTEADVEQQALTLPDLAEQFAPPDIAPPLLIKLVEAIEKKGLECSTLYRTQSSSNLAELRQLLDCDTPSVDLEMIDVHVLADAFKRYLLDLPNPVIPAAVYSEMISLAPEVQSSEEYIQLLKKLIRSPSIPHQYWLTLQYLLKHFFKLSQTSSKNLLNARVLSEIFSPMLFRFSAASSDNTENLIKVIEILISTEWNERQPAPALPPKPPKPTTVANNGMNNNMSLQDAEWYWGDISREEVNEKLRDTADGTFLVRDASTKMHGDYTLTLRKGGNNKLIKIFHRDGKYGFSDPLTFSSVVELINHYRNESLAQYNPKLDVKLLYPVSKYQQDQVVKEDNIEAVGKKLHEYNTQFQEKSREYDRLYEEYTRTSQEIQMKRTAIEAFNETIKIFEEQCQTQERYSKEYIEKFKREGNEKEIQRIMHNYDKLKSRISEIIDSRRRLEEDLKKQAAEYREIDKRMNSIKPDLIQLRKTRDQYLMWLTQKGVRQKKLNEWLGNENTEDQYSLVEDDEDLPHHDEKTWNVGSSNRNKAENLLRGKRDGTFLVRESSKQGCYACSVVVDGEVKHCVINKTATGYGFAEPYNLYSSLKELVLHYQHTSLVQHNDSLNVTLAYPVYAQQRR

[10] = Phase I (NADPH), read-out: Microsome Stability (15 min) T ½ Phase I rat
[11] = Phase I (NADPH), read-out: Microsome Stability (15 min) T ½ Phase I human
[12] = value after the slash in Table VIc, read-out: Microsome Stability (15 min) T ½ human, second value of cell
[13] = nude, mouse, Phase I (NADPH), read-out: Microsome Stability (15 min) T ½ Phase I nude mouse
[14] = Phase I (NADPH), read-out: Microsome Stability (15 min) T ½ Phase I nude mouse

| SMILES | half-life [1, 10] [min] | Buffer Stability (37° C.) % Remaining (at 16-23 hours) SGF [2] [%] | Buffer Stability (37° C.) % Remaining (at 16-23 hours) SIF [2] [%] | Buffer Stability (37° C.) % Remaining (at 16-23 hours) pH 1 [2] [%] | Buffer Stability (37° C.) % Remaining (at 16-23 hours) pH 4.5 [2] [%] | Buffer Stability (37° C.) % Remaining (at 16-23 hours) pH 6.6 [2] [%] | Buffer Stability (37° C.) % Remaining (at 16-23 hours) pH 7.4 [2] [%] | Buffer Stability (37° C.) % Remaining (at 16-23 hours) pH 9 [2] [%] | Plasma Stability (37° C.) % Remaining (3-3.5 hours) nude mouse [3] [%] | Plasma Stability (37° C.) % Remaining (3-3.5 hours) rat [6] [%] | half-life [7, 11] [min] | half-life [7, 12] [min] | solubility (Solubility pH 7.4) [µg/mL] | PAMPA Pe [8] | half-life [9, 13] [min] | pIC50 (PI3K alpha; read-out: PI3K alpha Mean IC50) | Papp A→B [4] [×10⁻⁶ cm/s] | Papp B→A [4] [×10⁻⁶ cm/s] | pIC50 (PI3K alpha) | plasma prodrug concentration ([5]; 0.5 h) | other results |
| --- | --- | --- | --- | --- | --- | --- | --- | --- | --- | --- | --- | --- | --- | --- | --- | --- | --- | --- | --- | --- | --- |
| COc1ccc2c(c1)c(/C=C1\Oc3cc(O)cc(O)c3C1=O)cn2CCCN(C)C [(2Z)-2-({1-[3-(dimethylamino)propyl]-5-methoxy-1H-indol-3-yl}methylene)-4,6-dihydroxy-1-benzofuran-3(2H)-one] | 6 | 95 | 57 | 99 | 93 | 83 | 82 | 94 | 78 | 77 | > 30 | 28 | 33 (≈ 80.8 µM) | 0 10e−6 cm/s | 15 | – | 3.9 | 27 | – | – | plasma prodrug, Dosed @ 50 mg, kg po (precursor phenolic compound dosed) ([5]; 1 h conc.): 23; plasma prodrug, Dosed @ 50 mg, kg po (precursor phenolic compound dosed) ([5]; 4 h conc.): 7 |
| COc1ccc2[nH]c(-c3ccccc3)c(/C=C3\Oc4cc(O)ccc4C3=O)c2c1 [(2Z)-6-hydroxy-2-[(5-methoxy-2-phenyl-1H-indol-3-yl)methylene]-1-benzofuran-3(2H)-one] | 18 | 93 | 97 | 97 | 98 | 98 | 98 | 99 | 83 | 111 | 15 | 3 | – | 0.18 10e−6 cm/s | 19 | 8.89 | 0.03 | 0.11 | – | – | half-life ([1]; value after the slash in Table VIc, read-out: Microsome Stability (15 min) T ½ rat, second value of cell): 4 min; plasma prodrug, Dosed @ 50 mg, kg po (precursor phenolic compound dosed) ([5]; first value, time not stated in Table VIIb): bql, bql; plasma prodrug, Dosed @ 50 mg, kg po (precursor phenolic compound dosed) ([5]; second value, time not stated in Table VIIb): bql, bql; half-life ([9]; nude, mouse, value after the slash in Table VIc, read-out: Microsome Stability (15 min) T ½ nude mouse, second value of cell): 4 min |
| COc1ccc2c(c1)c(/C=C1\Oc3cc(OC(=O)N(C)c4ccccc4)cc(OC(=O)N(C)c4ccccc4)c3C1=O)cn2CCCN(C)C [Example 2, (2Z)-2-({1-[3-(dimethylamino)propyl]-5-methoxy-1H-indol-3-yl}methylene)-3-oxo-2,3-dihydro-1-benzofuran-4,6-diyl bis[methyl(phenyl)carbamate]] | > 30 | 100 | 100 | 100 | 100 | 100 | 100 | 100 | 10 | 22 | 24 | – | – | 0 10e−6 cm/s | – | – | 0.04 | 0.08 | < 5.00 | 486 ng, ml | plasma prodrug concentration ([5]; 2 h): 757 ng, ml; half-life [9, 14]: > 30 min |
| COc1ccc2c(c1)c(/C=C1\Oc3cc(OC(=O)N(C(C)C)C(C)C)cc(OC(=O)N(C(C)C)C(C)C)c3C1=O)cn2CCCN(C)C [Example 4, (2Z)-2-({1-[3-(dimethylamino)propyl]-5-methoxy-1H-indol-3-yl}methylene)-3-oxo-2,3-dihydro-1-benzofuran-4,6-diyl bis(diisopropylcarbamate)] | > 30 | 100 | 100 | 100 | 100 | – | 100 | 100 | 64 | 65 | 6 | – | – | 0 10e−6 cm/s | – | – | 0.16 | 0.06 | < 5.00 | 411 ng, ml | plasma prodrug concentration ([5]; 2 h): 435 ng, ml; half-life [9, 14]: 21 min |

Continued, in another order:

| half-life [1, 10] [min] | Buffer Stability (37° C.) % Remaining (at 16-23 hours) SGF [2] [%] | Buffer Stability (37° C.) % Remaining (at 16-23 hours) SIF [2] [%] | Buffer Stability (37° C.) % Remaining (at 16-23 hours) pH 1 [2] [%] | Buffer Stability (37° C.) % Remaining (at 16-23 hours) pH 4.5 [2] [%] | Buffer Stability (37° C.) % Remaining (at 16-23 hours) pH 6.6 [2] [%] | Buffer Stability (37° C.) % Remaining (at 16-23 hours) pH 7.4 [2] [%] | Buffer Stability (37° C.) % Remaining (at 16-23 hours) pH 9 [2] [%] | Plasma Stability (37° C.) % Remaining (3-3.5 hours) nude mouse [3] [%] | Plasma Stability (37° C.) % Remaining (3-3.5 hours) rat [6] [%] | half-life [7, 11] [min] | half-life [7, 12] [min] | solubility (Solubility pH 7.4) [µg/mL] | PAMPA Pe [8] | half-life [9, 13] [min] | pIC50 (PI3K alpha; read-out: PI3K alpha Mean IC50) | SMILES | Papp A→B [4] [×10⁻⁶ cm/s] | Papp B→A [4] [×10⁻⁶ cm/s] | pIC50 (PI3K alpha) | plasma prodrug concentration ([5]; 0.5 h) | other results |
| --- | --- | --- | --- | --- | --- | --- | --- | --- | --- | --- | --- | --- | --- | --- | --- | --- | --- | --- | --- | --- | --- |
| < 1 | 94 | 0 | 95 | 82 | 63 | 14 | 0 | 16 | 0 | 3 | – | 3 (≈ 5.17 µM) | 0 10e−6 cm/s | 3 | < 5.01 | COc1ccc2c(c1)c(/C=C1\Oc3cc(OC(=O)OC(C)C)cc(OC(=O)OC(C)C)c3C1=O)cn2CCCN(C)C [Example 5, (2Z)-2-({1-[3-(dimethylamino)propyl]-5-methoxy-1H-indol-3-yl}methylene)-3-oxo-2,3-dihydro-1-benzofuran-4,6-diyl diisopropyl biscarbonate] | – | – | – | – | – |
| 4 | 77 | 0 | 73 | 66 | 46 | 0 | 0 | 8 | 0 | 6 | – | 1 (≈ 1.73 µM) | 0 10e−6 cm/s | 6 | < 5.00 | COc1ccc2c(c1)c(/C=C1\Oc3cc(OC(=O)CC(C)C)cc(OC(=O)CC(C)C)c3C1=O)cn2CCCN(C)C [Example 9, (2Z)-2-({1-[3-(dimethylamino)propyl]-5-methoxy-1H-indol-3-yl}methylene)-3-oxo-2,3-dihydro-1-benzofuran-4,6-diyl bis(3-methylbutanoate)] | – | – | – | – | – |
